Test results taken from PMC7794376 (Nature Communications, 2021).
Several values for one entry are separate records, joined by “and”; a condition that tells them apart may be missing. Equal entries are not always repeated. Where two headings read alike, the source gives them in different places.

Legend:
MtbCoaBC = MtbCoaBC (Mycobacterium tuberculosis, UniProt P9WNZ1); test: biochemical; type: biochemical; conditions: for activity at 0.015625 µM / activity at 0.03125 µM / activity at 0.0625 µM / activity at 0.25 µM / activity at 0.5 µM: relative to average DMSO CT; for Activity R1 / Activity R3: slope of absorbance at 360 vs time (s); for inhibition, IC50 MtbCoaBC 1b / remaining activity relative to control, IC50 MtbCoaBC 1b: three replicates, column head and unit not shown
human CoaB (HCoaB) = human CoaB (HCoaB) (Homo sapiens, UniProt Q9HAB8); test: EnzChek pyrophosphate assay, HCoaB; type: biochemical; conditions: for Activity: slope of absorbance at 360 nm vs time (s)
[1] = inhibitor concentration 1 (log 0)
[2] = inhibitor concentration 2 (log 0.30103)
[3] = 3.125 uM 1b, relative to average DMSO CT, replicates R1-R3
[4] = 6.25 uM 1b, relative to average DMSO CT, replicates R1-R3
[5] = 25 uM 1b, relative to average DMSO CT, replicates R1-R3

human CoaB (HCoaB), sequence (Q9HAB8 whole entry): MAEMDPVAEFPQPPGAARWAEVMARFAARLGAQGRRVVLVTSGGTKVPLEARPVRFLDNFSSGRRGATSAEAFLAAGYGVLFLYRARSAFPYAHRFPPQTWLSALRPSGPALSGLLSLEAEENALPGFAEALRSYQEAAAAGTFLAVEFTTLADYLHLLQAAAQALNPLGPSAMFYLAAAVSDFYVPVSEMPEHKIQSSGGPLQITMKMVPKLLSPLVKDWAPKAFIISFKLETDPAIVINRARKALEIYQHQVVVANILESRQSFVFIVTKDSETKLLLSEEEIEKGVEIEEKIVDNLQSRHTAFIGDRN
MtbCoaBC, sequence (P9WNZ1 whole entry): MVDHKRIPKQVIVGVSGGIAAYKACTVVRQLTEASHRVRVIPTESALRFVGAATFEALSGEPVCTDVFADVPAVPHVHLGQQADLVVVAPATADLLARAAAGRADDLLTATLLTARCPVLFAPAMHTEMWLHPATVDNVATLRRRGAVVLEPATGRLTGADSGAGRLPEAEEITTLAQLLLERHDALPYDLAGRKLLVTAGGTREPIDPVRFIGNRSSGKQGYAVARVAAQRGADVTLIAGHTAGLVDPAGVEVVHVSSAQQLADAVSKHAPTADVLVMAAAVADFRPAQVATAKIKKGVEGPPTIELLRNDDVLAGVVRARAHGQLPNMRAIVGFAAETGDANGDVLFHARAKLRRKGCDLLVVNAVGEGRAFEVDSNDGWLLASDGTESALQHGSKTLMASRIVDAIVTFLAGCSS

For `O=C(c1ccc(O)cc1)c1ccc(O)c(O)c1O` [compound 1b], the inhibition at 0.015625 µM (MtbCoaBC; 0.015625 uM 1b, replicate R1, read-out: Inhibition % R1) was 2.55%, the activity at 0.015625 µM (MtbCoaBC; 0.015625 uM 1b, replicate R1, read-out: Activity % R1) was 97.4% and the “Activity R1” value (MtbCoaBC; 0.015625 uM 1b, replicate R1) was 0.0001869. For the same compound, the inhibition at 0.015625 µM (MtbCoaBC; 0.015625 uM 1b, replicate R2, read-out: Inhibition % R2) was 2.2%, the activity at 0.015625 µM (MtbCoaBC; 0.015625 uM 1b, replicate R2, read-out: Activity % R2) was 97.8% and the inhibition at 0.015625 µM (MtbCoaBC; 0.015625 uM 1b, replicate R3, read-out: Inhibition % R3) was 1.31%. The activity at 0.015625 µM (MtbCoaBC; 0.015625 uM 1b, replicate R3, read-out: Activity % R3) was 98.7%, the “Activity R3” value (MtbCoaBC; 0.015625 uM 1b, replicate R3) was 0.0001893 and the inhibition at 0.03125 µM (MtbCoaBC; 0.03125 uM 1b, replicate R1, read-out: Inhibition % R1) was 6.71%. The activity at 0.03125 µM (MtbCoaBC; 0.03125 uM 1b, replicate R1, read-out: Activity % R1) was 93.3%, the “Activity R1” value (MtbCoaBC; 0.03125 uM 1b, replicate R1) was 0.0001789 and the inhibition at 0.03125 µM (MtbCoaBC; 0.03125 uM 1b, replicate R2, read-out: Inhibition % R2) was 2.99%. It also gave an activity at 0.03125 µM (MtbCoaBC; 0.03125 uM 1b, replicate R2, read-out: Activity % R2) of 97%, an inhibition at 0.03125 µM (MtbCoaBC; 0.03125 uM 1b, replicate R3, read-out: Inhibition % R3) of 1.51% and an activity at 0.03125 µM (MtbCoaBC; 0.03125 uM 1b, replicate R3, read-out: Activity % R3) of 98.5%. For the same compound, the “Activity R3” value (MtbCoaBC; 0.03125 uM 1b, replicate R3) was 0.0001889, the inhibition at 0.0625 µM (MtbCoaBC; 0.0625 uM 1b, replicate R1, read-out: Inhibition % R1) was 9.45% and the activity at 0.0625 µM (MtbCoaBC; 0.0625 uM 1b, replicate R1, read-out: Activity % R1) was 90.5%. The “Activity R1” value (MtbCoaBC; 0.0625 uM 1b, replicate R1) was 0.0001736, the inhibition at 0.0625 µM (MtbCoaBC; 0.0625 uM 1b, replicate R2, read-out: Inhibition % R2) was 5.43% and the activity at 0.0625 µM (MtbCoaBC; 0.0625 uM 1b, replicate R2, read-out: Activity % R2) was 94.6%. For the same compound, the inhibition at 0.0625 µM (MtbCoaBC; 0.0625 uM 1b, replicate R3, read-out: Inhibition % R3) was 12.9%, the activity at 0.0625 µM (MtbCoaBC; 0.0625 uM 1b, replicate R3, read-out: Activity % R3) was 87.1% and the “Activity R3” value (MtbCoaBC; 0.0625 uM 1b, replicate R3) was 0.0001671. For the same compound, the inhibition at 0.25 µM (MtbCoaBC; 0.25 uM 1b, replicate R1, read-out: Inhibition % R1) was 34.5%, the activity at 0.25 µM (MtbCoaBC; 0.25 uM 1b, replicate R1, read-out: Activity % R1) was 65.5% and the “Activity R1” value (MtbCoaBC; 0.25 uM 1b, replicate R1) was 0.0001256. For the same compound, the inhibition at 0.25 µM (MtbCoaBC; 0.25 uM 1b, replicate R2, read-out: Inhibition % R2) was 38.6%, the activity at 0.25 µM (MtbCoaBC; 0.25 uM 1b, replicate R2, read-out: Activity % R2) was 61.4% and the inhibition at 0.25 µM (MtbCoaBC; 0.25 uM 1b, replicate R3, read-out: Inhibition % R3) was 42.2%. For the same compound, the activity at 0.25 µM (MtbCoaBC; 0.25 uM 1b, replicate R3, read-out: Activity % R3) was 57.8%, the “Activity R3” value (MtbCoaBC; 0.25 uM 1b, replicate R3) was 0.0001108 and the inhibition at 0.5 µM (MtbCoaBC; 0.5 uM 1b, replicate R1, read-out: Inhibition % R1) was 89.6%. For the same compound, the activity at 0.5 µM (MtbCoaBC; 0.5 uM 1b, replicate R1, read-out: Activity % R1) was 10.4%, the “Activity R1” value (MtbCoaBC; 0.5 uM 1b, replicate R1) was 0.000019995 and the inhibition at 0.5 µM (MtbCoaBC; 0.5 uM 1b, replicate R2, read-out: Inhibition % R2) was 80.6%. It also gave an activity at 0.5 µM (MtbCoaBC; 0.5 uM 1b, replicate R2, read-out: Activity % R2) of 19.4%, an inhibition at 0.5 µM (MtbCoaBC; 0.5 uM 1b, replicate R3, read-out: Inhibition % R3) of 86.3% and an activity at 0.5 µM (MtbCoaBC; 0.5 uM 1b, replicate R3, read-out: Activity % R3) of 13.7%. For the same compound, the “Activity R3” value (MtbCoaBC; 0.5 uM 1b, replicate R3) was 0.000026339, the “inhibition, IC50 MtbCoaBC 1b” value (MtbCoaBC; [1]) was 96.33 and 92.35 and 100.00 and the “remaining activity relative to control, IC50 MtbCoaBC 1b” value (MtbCoaBC; [1]) was -0.335 and 3.671 and 7.649. The “inhibition, IC50 MtbCoaBC 1b” value (MtbCoaBC; [2]) was 100.00, the “remaining activity relative to control, IC50 MtbCoaBC 1b” value (MtbCoaBC; [2]) was -0.361 and -1.371 and -2.001 and the IC50 (MtbCoaBC; read-out: IC50 EnzChek MtbCoaBC) was 0.28 ± 0.05 µM. For the same compound, the IC50 (human CoaB (HCoaB); 1 µM enzyme, average of three independent experiments ± SD) was 122 ± 22 µM, the Activity % (human CoaB (HCoaB); [3]) was 96.65% and 97.82% and the activity at 3.125 µM (human CoaB (HCoaB); [3]) was 97.6%. The Inhibition % (human CoaB (HCoaB); 3.125 uM 1b, replicates R1-R3) was 2.18% and 2.43%, the inhibition at 3.125 µM (human CoaB (HCoaB); 3.125 uM 1b, replicates R1-R3) was 3.35% and the Activity (human CoaB (HCoaB); 3.125 uM 1b, replicates R1-R3) was 0.0001351 and 0.0001338 and 0.0001354. For the same compound, the Activity % (human CoaB (HCoaB); [4]) was 95.26% and 96.32%, the activity at 6.25 µM (human CoaB (HCoaB); [4]) was 97.7% and the Inhibition % (human CoaB (HCoaB); 6.25 uM 1b, replicates R1-R3) was 4.74% and 3.68% and 2.34%. For the same compound, the Activity (human CoaB (HCoaB); 6.25 uM 1b, replicates R1-R3) was 0.0001352 and 0.0001319 and 0.0001333, the Activity % (human CoaB (HCoaB); [5]) was 82.72% and 82.77% and the activity at 25 µM (human CoaB (HCoaB); [5]) was 81.5%. The Inhibition % (human CoaB (HCoaB); 25 uM 1b, replicates R1-R3) was 17.23% and 18.55%.
